From article PMC9487510, “A Novel Oral GyrB/ParE Dual Binding Inhibitor Effective against Multidrug-Resistant Neisseria gonorrhoeae and Other High-Threat Pathogens” (Antimicrobial Agents and Chemotherapy, 2022)
Converted amounts (≈) assume the structure as drawn. Where two headings read alike, the source gives them in different places.

Test system: N. gonorrhoeae clinical isolates
Test: MIC, agar dilution (CLSI)
Assay type: cell-based, Neisseria gonorrhoeae
Details: for MIC: read-out: MIC

MIC range (96 clinical isolates): 0.016 to 4 µg/mL
MIC (Neisseria gonorrhoeae, strain CDC1 (GCREF2012 016)): 0.125 µg/mL (≈ 0.276 µM)
MIC (Neisseria gonorrhoeae, strain CDC2 (GCREF2012 045)): 0.125 µg/mL (≈ 0.276 µM)
MIC (Neisseria gonorrhoeae, strain CDC3 (GCREF2013 013)): 0.125 µg/mL (≈ 0.276 µM)
MIC (Neisseria gonorrhoeae, strain CDC4 (GCREF2013 030)): 0.125 µg/mL (≈ 0.276 µM)
MIC (Neisseria gonorrhoeae, strain CDC5 (GCREF2012 001)): 0.125 µg/mL (≈ 0.276 µM)
MIC (Neisseria gonorrhoeae, strain CDC6 (GCREF2012 002)): 0.25 µg/mL (≈ 0.551 µM)
MIC (Neisseria gonorrhoeae, strain CDC8 (GCREF2012 004)): 0.125 µg/mL (≈ 0.276 µM)
MIC (Neisseria gonorrhoeae, strain CDC9 (GCREF2012 005)): 0.125 µg/mL (≈ 0.276 µM)
MIC (Neisseria gonorrhoeae, strain CDC10 (GCREF2012 006)): 0.125 µg/mL (≈ 0.276 µM)
MIC (Neisseria gonorrhoeae, strain CDC11 (GCREF2012 007)): 0.125 µg/mL (≈ 0.276 µM)
MIC (Neisseria gonorrhoeae, strain CDC12 (GCREF2012 008)): 0.25 µg/mL (≈ 0.551 µM)
MIC (Neisseria gonorrhoeae, strain CDC13 (GCREF2012 009)): 0.063 µg/mL (≈ 0.139 µM)
MIC (Neisseria gonorrhoeae, strain CDC14 (GCREF2012 010)): 0.25 µg/mL (≈ 0.551 µM)
MIC (Neisseria gonorrhoeae, strain CDC15 (GCREF2012 011)): 0.031 µg/mL (≈ 0.0684 µM)
MIC (Neisseria gonorrhoeae, strain CDC16 (GCREF2012 012)): 4 µg/mL (≈ 8.82 µM)
MIC (Neisseria gonorrhoeae, strain CDC18 (GCREF2012 014)): 0.063 µg/mL (≈ 0.139 µM)
MIC (Neisseria gonorrhoeae, strain CDC19 (GCREF2012 015)): 0.125 µg/mL (≈ 0.276 µM)
MIC (Neisseria gonorrhoeae, strain CDC20 (GCREF2012 017)): 0.125 µg/mL (≈ 0.276 µM)
MIC (Neisseria gonorrhoeae, strain CDC21 (GCREF2012 018)): 0.25 µg/mL (≈ 0.551 µM)
MIC (Neisseria gonorrhoeae, strain CDC22 (GCREF2012 019)): 0.031 µg/mL (≈ 0.0684 µM)
MIC (Neisseria gonorrhoeae, strain CDC23 (GCREF2012 020)): 0.125 µg/mL (≈ 0.276 µM)
MIC (Neisseria gonorrhoeae, strain CDC24 (GCREF2012 021)): 0.063 µg/mL (≈ 0.139 µM)
MIC (Neisseria gonorrhoeae, strain CDC25 (GCREF2012 022)): 0.25 µg/mL (≈ 0.551 µM)
MIC (Neisseria gonorrhoeae, strain CDC26 (GCREF2012 023)): 0.063 µg/mL (≈ 0.139 µM)
MIC (Neisseria gonorrhoeae, strain CDC27 (GCREF2012 024)): 0.063 µg/mL (≈ 0.139 µM)
MIC (Neisseria gonorrhoeae, strain CDC28 (GCREF2012 025)): 0.25 µg/mL (≈ 0.551 µM)
MIC (Neisseria gonorrhoeae, strain CDC29 (GCREF2012 026)): 0.125 µg/mL (≈ 0.276 µM)
MIC (Neisseria gonorrhoeae, strain CDC30 (GCREF2012 027)): 0.125 µg/mL (≈ 0.276 µM)
MIC (Neisseria gonorrhoeae, strain CDC31 (GCREF2012 028)): 0.25 µg/mL (≈ 0.551 µM)
MIC (Neisseria gonorrhoeae, strain CDC32 (GCREF2012 029)): 0.125 µg/mL (≈ 0.276 µM)
MIC (Neisseria gonorrhoeae, strain CDC33 (GCREF2012 030)): 0.5 µg/mL (≈ 1.1 µM)
MIC (Neisseria gonorrhoeae, strain CDC34 (GCREF2012 031)): 0.063 µg/mL (≈ 0.139 µM)
MIC (Neisseria gonorrhoeae, strain CDC35 (GCREF2012 032)): 0.25 µg/mL (≈ 0.551 µM)
MIC (Neisseria gonorrhoeae, strain CDC36 (GCREF2012 033)): 0.063 µg/mL (≈ 0.139 µM)
MIC (Neisseria gonorrhoeae, strain CDC37 (GCREF2012 034)): 0.125 µg/mL (≈ 0.276 µM)
MIC (Neisseria gonorrhoeae, strain CDC38 (GCREF2012 035)): 0.063 µg/mL (≈ 0.139 µM)
MIC (Neisseria gonorrhoeae, strain CDC39 (GCREF2012 036)): 0.25 µg/mL (≈ 0.551 µM)
MIC (Neisseria gonorrhoeae, strain CDC40 (GCREF2012 037)): 0.125 µg/mL (≈ 0.276 µM)
MIC (Neisseria gonorrhoeae, strain CDC41 (GCREF2012 038)): 0.25 µg/mL (≈ 0.551 µM)
MIC (Neisseria gonorrhoeae, strain CDC42 (GCREF2012 039)): 0.25 µg/mL (≈ 0.551 µM)
MIC (Neisseria gonorrhoeae, strain CDC43 (GCREF2012 040)): 0.25 µg/mL (≈ 0.551 µM)
MIC (Neisseria gonorrhoeae, strain CDC45 (GCREF2012 042)): 0.25 µg/mL (≈ 0.551 µM)
MIC (Neisseria gonorrhoeae, strain CDC46 (GCREF2012 043)): 0.125 µg/mL (≈ 0.276 µM)
MIC (Neisseria gonorrhoeae, strain CDC47 (GCREF2012 044)): 0.125 µg/mL (≈ 0.276 µM)
MIC (Neisseria gonorrhoeae, strain CDC48 (GCREF2012 046)): 0.125 µg/mL (≈ 0.276 µM)
MIC (Neisseria gonorrhoeae, strain CDC49 (GCREF2012 047)): 0.25 µg/mL (≈ 0.551 µM)
MIC (Neisseria gonorrhoeae, strain CDC50 (GCREF2012 048)): 0.25 µg/mL (≈ 0.551 µM)
MIC (Neisseria gonorrhoeae, strain CDC51 (GCREF2012 049)): 0.125 µg/mL (≈ 0.276 µM)
MIC (Neisseria gonorrhoeae, strain CDC52 (GCREF2012 050)): 0.25 µg/mL (≈ 0.551 µM)
MIC (Neisseria gonorrhoeae, strain CDC53 (GCREF2012 051)): 0.25 µg/mL (≈ 0.551 µM)
MIC (Neisseria gonorrhoeae, strain CDC54 (GCREF2012 052)): 0.25 µg/mL (≈ 0.551 µM)
MIC (Neisseria gonorrhoeae, strain CDC55 (GCREF2013 001)): 0.125 µg/mL (≈ 0.276 µM)
MIC (Neisseria gonorrhoeae, strain CDC56 (GCREF2013 002)): 0.25 µg/mL (≈ 0.551 µM)
MIC (Neisseria gonorrhoeae, strain CDC57 (GCREF2013 003)): 0.125 µg/mL (≈ 0.276 µM)
MIC (Neisseria gonorrhoeae, strain CDC58 (GCREF2013 004)): 0.25 µg/mL (≈ 0.551 µM)
MIC (Neisseria gonorrhoeae, strain CDC59 (GCREF2013 044)): 0.25 µg/mL (≈ 0.551 µM)
MIC (Neisseria gonorrhoeae, strain CDC60 (GCREF2013 005)): 0.125 µg/mL (≈ 0.276 µM)
MIC (Neisseria gonorrhoeae, strain CDC61 (GCREF2013 006)): 0.125 µg/mL (≈ 0.276 µM)
MIC (Neisseria gonorrhoeae, strain CDC62 (GCREF2013 007)): 0.25 µg/mL (≈ 0.551 µM)
MIC (Neisseria gonorrhoeae, strain CDC63 (GCREF2013 008)): 0.125 µg/mL (≈ 0.276 µM)
MIC (Neisseria gonorrhoeae, strain CDC64 (GCREF2013 009)): 0.125 µg/mL (≈ 0.276 µM)
MIC (Neisseria gonorrhoeae, strain CDC65 (GCREF2013 010)): 0.125 µg/mL (≈ 0.276 µM)
MIC (Neisseria gonorrhoeae, strain CDC66 (GCREF2013 011)): 0.125 µg/mL (≈ 0.276 µM)
MIC (Neisseria gonorrhoeae, strain CDC67 (GCREF2013 014)): 0.125 µg/mL (≈ 0.276 µM)
MIC (Neisseria gonorrhoeae, strain CDC68 (GCREF2013 016)): 0.063 µg/mL (≈ 0.139 µM)
MIC (Neisseria gonorrhoeae, strain CDC69 (GCREF2013 017)): 0.063 µg/mL (≈ 0.139 µM)
MIC (Neisseria gonorrhoeae, strain CDC70 (GCREF2013 018)): 0.125 µg/mL (≈ 0.276 µM)
MIC (Neisseria gonorrhoeae, strain CDC71 (GCREF2013 019)): 0.016 µg/mL (≈ 0.0353 µM)
MIC (Neisseria gonorrhoeae, strain CDC72 (GCREF2013 020)): 0.25 µg/mL (≈ 0.551 µM)
MIC (Neisseria gonorrhoeae, strain CDC73 (GCREF2013 021)): 0.125 µg/mL (≈ 0.276 µM)
MIC (Neisseria gonorrhoeae, strain CDC74 (GCREF2013 022)): 0.125 µg/mL (≈ 0.276 µM)
MIC (Neisseria gonorrhoeae, strain CDC75 (GCREF2013 023)): 0.125 µg/mL (≈ 0.276 µM)
MIC (Neisseria gonorrhoeae, strain CDC76 (GCREF2013 024)): 0.125 µg/mL (≈ 0.276 µM)
MIC (Neisseria gonorrhoeae, strain CDC77 (GCREF2013 025)): 0.125 µg/mL (≈ 0.276 µM)
MIC (Neisseria gonorrhoeae, strain CDC78 (GCREF2013 026)): 0.063 µg/mL (≈ 0.139 µM)
MIC (Neisseria gonorrhoeae, strain CDC79 (GCREF2013 027)): 0.125 µg/mL (≈ 0.276 µM)
MIC (Neisseria gonorrhoeae, strain CDC80 (GCREF2013 028)): 0.125 µg/mL (≈ 0.276 µM)
MIC (Neisseria gonorrhoeae, strain CDC81 (GCREF2013 029)): 0.25 µg/mL (≈ 0.551 µM)
MIC (Neisseria gonorrhoeae, strain CDC82 (GCREF2013 031)): 0.125 µg/mL (≈ 0.276 µM)
MIC (Neisseria gonorrhoeae, strain CDC83 (GCREF2013 032)): 0.125 µg/mL (≈ 0.276 µM)
MIC (Neisseria gonorrhoeae, strain CDC84 (GCREF2013 033)): 0.125 µg/mL (≈ 0.276 µM)
MIC (Neisseria gonorrhoeae, strain CDC86 (GCREF2013 035)): 0.125 µg/mL (≈ 0.276 µM)
MIC (Neisseria gonorrhoeae, strain CDC87 (GCREF2013 036)): 0.25 µg/mL (≈ 0.551 µM)
MIC (Neisseria gonorrhoeae, strain CDC88 (GCREF2013 037)): 0.125 µg/mL (≈ 0.276 µM)
MIC (Neisseria gonorrhoeae, strain CDC89 (GCREF2013 038)): 0.125 µg/mL (≈ 0.276 µM)
MIC (Neisseria gonorrhoeae, strain CDC90 (GCREF2013 039)): 0.125 µg/mL (≈ 0.276 µM)
MIC (Neisseria gonorrhoeae, strain CDC91 (GCREF2013 040)): 4 µg/mL (≈ 8.82 µM)
MIC (Neisseria gonorrhoeae, strain CDC92 (GCREF2013 041)): 0.125 µg/mL (≈ 0.276 µM)
MIC (Neisseria gonorrhoeae, strain CDC93 (GCREF2013 042)): 0.125 µg/mL (≈ 0.276 µM)
MIC (Neisseria gonorrhoeae, strain CDC94 (GCREF2013 043)): 0.125 µg/mL (≈ 0.276 µM)
MIC (Neisseria gonorrhoeae, strain CDC95 (GCREF2013 045)): 0.25 µg/mL (≈ 0.551 µM)
MIC (Neisseria gonorrhoeae, strain CDC96 (GCREF2013 046)): 0.125 µg/mL (≈ 0.276 µM)
MIC (Neisseria gonorrhoeae, strain CDC97 (GCREF2013 047)): 0.125 µg/mL (≈ 0.276 µM)
MIC (Neisseria gonorrhoeae, strain CDC98 (GCREF2013 048)): 0.125 µg/mL (≈ 0.276 µM)
MIC (Neisseria gonorrhoeae, strain CDC99 (GCREF2013 012)): 0.125 µg/mL (≈ 0.276 µM)
MIC (Neisseria gonorrhoeae, strain CDC100 (GCREF2013 015)): 0.25 µg/mL (≈ 0.551 µM)
MIC50 (Neisseria gonorrhoeae, 96 clinical isolates, read-out: MIC50): 0.125 µg/mL (≈ 0.276 µM)
MIC90 (Neisseria gonorrhoeae, 96 clinical isolates, read-out: MIC90): 0.25 µg/mL (≈ 0.551 µM)
Structure (SMILES): C=CC1=C(C(=O)O)N2C(=O)[C@@H](NC(=O)/C(=N\OCC(=O)O)c3csc(N)n3)[C@H]2SC1 [Cfx, cefixime]
